# In patent publication US5789416A, “N^6 mono heterocyclic substituted adenosine derivatives” (CV Therapeutics, priority 1996, dated 1998):
# Read-outs that look alike come from different tables or passages of the source.
# How the values were obtained:
# Type in all cases: cell-based
# [1] = system: adenosine A1 receptor; test: A1 receptor mediated inhibition of isoproterenol stimulated cAMP accumulation in DDT cells; details: for A1 /A2: ratio of EC50 in DDT cells (A1) to EC50 in PC12 cells (A2)
# From the text: (§1) The first was the A1 receptor mediated inhibition of isoproterenol stimulated cAMP accumulation in DDT cells. The EC50 of each derivative is shown in Table I. Also shown in Table I is the ability of each derivative to stimulate cAMP production in PC12 cells, a function of agonist stimulation of adenosine A2 receptors. The ratio of the relative potency of each compound in stimulating either an A1 receptor or an A2 receptor effect is termed the selectivity of each compound for the A1 receptor.
# [2] = biological target: T1, adenosine A1 receptor (Mesocricetus auratus, UniProt A0A1U8BVR4); test: as above; details: DDT cells; inhibition of isoproterenol stimulated cAMP accumulation (A1 agonism)
# T1 construct: endogenous in cells
# T1 sequence (A0A1U8BVR4 1-326): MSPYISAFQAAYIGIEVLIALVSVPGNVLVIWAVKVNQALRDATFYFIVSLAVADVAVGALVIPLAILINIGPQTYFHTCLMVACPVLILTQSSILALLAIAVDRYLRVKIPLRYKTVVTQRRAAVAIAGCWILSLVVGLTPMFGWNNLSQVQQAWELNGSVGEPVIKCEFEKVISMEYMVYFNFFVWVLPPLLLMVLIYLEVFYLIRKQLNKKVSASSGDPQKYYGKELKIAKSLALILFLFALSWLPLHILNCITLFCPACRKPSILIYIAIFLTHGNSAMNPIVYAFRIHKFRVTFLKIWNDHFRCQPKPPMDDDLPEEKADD
# From the text: as §1
# [3] = biological target: T2, adenosine A2 receptors (Rattus norvegicus, UniProt P30543); test: stimulation of cAMP production in PC12 cells (adenosine A2 receptor agonist function); details: stimulation of cAMP production (A2 agonism)
# T2 construct: stimulate cAMP production in PC12 cells, a function of agonist stimulation of adenosine A2 receptors; endogenous in cells; host or cells: PC12 cells
# Procedure: Compounds of this invention prepared according to the method of Example 1 were tested in two functional models specific for adenosine A1 receptor agonist function. The first was the A1 receptor mediated inhibition of isoproterenol stimulated cAMP accumulation in DDT cells. The EC50 of each derivative is shown in Table I. Also shown in Table I is the ability of each derivative to stimulate cAMP production in PC12 cells, a function of agonist stimulation of adenosine A2 receptors. The ratio of the relative potency of each compound in stimulating either an A1 receptor or an A2 receptor effect is termed the selectivity of each compound for the A1 receptor. […] The use of measuring cAMP metabolism as an assay for adenosine A1 receptor function has been previously described (Scammells, P., Baker, S., Belardinelli, L., and Olsson, R., 1994, Substituted 1,3-dipropylxanthines as irreversible antagonists of A1 adenosine receptors. J. Med. Chem 37: […], 1994).
# [4] = ratio of EC50 in PC12 cells (A2) to EC50 in DDT cells (A1), A1 selectivity
# T2 sequence (P30543 whole entry): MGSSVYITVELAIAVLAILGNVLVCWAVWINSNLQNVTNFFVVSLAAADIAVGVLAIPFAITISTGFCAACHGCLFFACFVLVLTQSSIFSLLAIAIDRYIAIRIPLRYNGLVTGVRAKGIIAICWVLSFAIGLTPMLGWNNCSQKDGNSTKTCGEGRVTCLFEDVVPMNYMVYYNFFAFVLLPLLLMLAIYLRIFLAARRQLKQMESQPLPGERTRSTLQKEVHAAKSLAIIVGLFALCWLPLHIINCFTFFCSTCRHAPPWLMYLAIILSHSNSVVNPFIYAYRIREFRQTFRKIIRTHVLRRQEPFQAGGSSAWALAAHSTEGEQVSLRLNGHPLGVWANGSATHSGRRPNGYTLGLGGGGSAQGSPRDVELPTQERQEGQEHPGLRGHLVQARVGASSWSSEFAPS
smiles,measurement,setting,value
"OC[C@H]1O[C@@H](n2cnc3c(NC4CCOCC4)ncnc32)[C@H](O)[C@@H]1O [I, 6-(4-aminopyran)-purine Riboside]",A2 /A1,[1],80.0
same,A1 /A2,[1],0.012
same,EC50,[2],12 nM
same,EC50,[3],970 nM
"OC[C@H]1O[C@@H](n2cnc3c(NC4CCOC4)ncnc32)[C@H](O)[C@@H]1O (some centres unmarked) [II, 6-(3-aminotetrahydrofuranyl)purine Riboside]",A1 /A2,[1],0.0093
same,A2 /A1,[1]; [4],107.6
same,EC50,[2],13 nM
same,EC50,[3],1400 nM
OC[C@H]1O[C@@H](n2cnc3c(N[C@@H]4CCOC4)ncnc32)[C@H](O)[C@@H]1O [III],A1 /A2,[1],0.0024
same,A2 /A1,[1]; [4],414
same,EC50,[2],1.08 nM
same,EC50,[3],448 nM
O=C1NCCCC[C@@H]1Nc1ncnc2c1ncn2[C@@H]1O[C@H](CO)[C@@H](O)[C@H]1O [IV],A1 /A2,[1],0.889
same,A2 /A1,[1]; [4],1.12
same,EC50,[2],161 nM
same,EC50,[3],181 nM
"OC[C@H]1O[C@@H](n2cnc3c(N[C@H]4CCOC4)ncnc32)[C@H](O)[C@@H]1O [V, 6-(3-(S)-aminotetrahydrofuranyl)purine Riboside]",A1 /A2,[1],0.00044
same,A2 /A1,[1]; [4],2258
same,EC50,[2],3.4 nM
same,EC50,[3],7680 nM
